According to patent US8574563B2 (Bristol-Myers Squibb Company, priority 2006, dated 2013):

Tested on: HCV 1b-377-neo replicon cells
Experiment: HCV replicon assay, HCV 1b-377-neo replicon cells (1b FRET)
Type: cell-based, Hepatitis C virus genotype 1b
Conditions: Hepatitis C virus, HCV 1b-377-neo replicon cells; HCV 1b genotype; read-out: EC50 range against HCV 1b (Table 2, Range)
In short: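 Compounds tested in HCV genotype 1b-377-neo replicon cells with a FRET read-out. Cells resistant to a reference NS5A inhibitor through a Y2065H NS5A mutation were run alongside wild-type cells.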

SMILES | EC50
COC(=O)N[C@@H](C(=O)N1CCC[C@H]1c1ncc(-c2ccc(-c3ccc(-c4cnc([C@@H]5CCCN5C(=O)N5CCOCC5)[nH]4)cn3)cc2)[nH]1)c1ccccc1 [Example 144, methyl ((1R)-2-((2S)-2-(5-(4-(5-(2-((2S)-1-(4-morpholinylcarbonyl)-2-pyrrolidinyl)-1H-imidazol-5-yl)-2-pyridinyl)phenyl)-1H-imidazol-2-yl)-1-pyrrolidinyl)-2-oxo-1-phenylethyl)carbamate] | 0.001 to 0.999 nM
COC(=O)N[C@@H](C(=O)N1CCC[C@H]1c1ncc(-c2ccc(-c3ccc(-c4cnc([C@@H]5CCCN5C(=O)[C@H](NC(=O)OC)c5ccccc5)[nH]4)cn3)nc2)[nH]1)c1ccccc1 [Example 145, dimethyl (2,2′-bipyridine-5,5′-diylbis(1H-imidazole-5,2-diyl(2S)-2,1-pyrrolidinediyl((1R)-2-oxo-1-phenyl-2,1-ethanediyl)))biscarbamate] | 0.001 to 0.999 nM
CN(C)[C@@H](C(=O)N1CCC[C@H]1c1ncc(-c2ccc(-c3ccc(-c4cnc([C@@H]5CCCN5C(=O)[C@@H](c5ccccc5)N(C)C)[nH]4)nc3)cc2)[nH]1)c1ccccc1 [Example 146, (1R)-2-((2S)-2-(5-(5-(4-(2-((2S)-1-((2R)-2-(dimethylamino)-2-phenylacetyl)-2-pyrrolidinyl)-1H-imidazol-5-yl)phenyl)-2-pyridinyl)-1H-imidazol-2-yl)-1-pyrrolidinyl)-N,N-dimethyl-2-oxo-1-phenylethanamine] | 0.001 to 0.999 nM
COC(=O)N[C@@H](C(=O)N1CCC[C@H]1c1ncc(-c2ccc(-c3ccc(-c4cnc([C@@H]5CCCN5C(=O)[C@H](NC(=O)OC)c5ccccc5)[nH]4)nc3)cc2)[nH]1)c1ccccc1 [Example 147, methyl ((1R)-2-((2S)-2-(5-(5-(4-(2-((2S)-1-((2R)-2-((methoxycarbonyl)amino)-2-phenylacetyl)-2-pyrrolidinyl)-1H-imidazol-5-yl)phenyl)-2-pyridinyl)-1H-imidazol-2-yl)-1-pyrrolidinyl)-2-oxo-1-phenylethyl)carbamate] | 0.001 to 0.999 nM
CN(C)[C@@H](C(=O)N1CSC[C@H]1c1ncc(-c2ccc(-c3ccc(-c4cnc([C@@H]5CSCN5C(=O)[C@@H](c5ccccc5)N(C)C)[nH]4)cc3)cc2)[nH]1)c1ccccc1 [Example 148, (1R,1′R)-2,2′-(4,4′-biphenyldiylbis(1H-imidazole-5,2-diyl(4R)-1,3-thiazolidine-4,3-diyl))bis(N,N-dimethyl-2-oxo-1-phenylethanamine)] | 1 to 99 nM
COC(=O)N[C@@H](C(=O)N1CSC[C@H]1c1ncc(-c2ccc(-c3ccc(-c4cnc([C@@H]5CSCN5C(=O)[C@H](NC(=O)OC)c5ccccc5)[nH]4)cc3)cc2)[nH]1)c1ccccc1 [Example 149, dimethyl (4,4′-biphenyldiylbis(1H-imidazole-5,2-diyl(4R)-1,3-thiazolidine-4,3-diyl((1R)-2-oxo-1-phenyl-2,1-ethanediyl)))biscarbamate] | 0.001 to 0.999 nM
O=C([C@H]1CCCO1)N1CSC[C@H]1c1ncc(-c2ccc(-c3ccc(-c4cnc([C@@H]5CSCN5C(=O)[C@H]5CCCO5)[nH]4)cc3)cc2)[nH]1 [Example 150, (4R,4′R)-4,4′-(4,4′-biphenyldiylbis(1H imidazole-5,2-diyl))bis(3-((2R)-tetrahydro-2-furanylcarbonyl)-1,3-thiazolidine)] | 1 to 99 nM
CN(C)[C@@H](C(=O)N1CCC[C@H]1c1ncc(-c2ccc(-c3ncc(-c4cnc([C@@H]5CCCN5C(=O)[C@@H](c5ccccc5)N(C)C)[nH]4)cn3)cc2)[nH]1)c1ccccc1 [Example 152j-1, (1R)-2-((2S)-2-(5-(2-(4-(2-((2S)-1-((2R)-2-(dimethylamino)-2-phenylacetyl)-2-pyrrolidinyl)-1H-imidazol-5-yl)phenyl)-5-pyrimidinyl)-1H-imidazol-2-yl)-1-pyrrolidinyl)-N,N-dimethyl-2-oxo-1-phenylethanamine] | 1 to 99 nM
COC(=O)N[C@@H](C(=O)N1CCC[C@H]1c1ncc(-c2ccc(-c3ncc(-c4cnc([C@@H]5CCCN5C(=O)[C@H](NC(=O)OC)c5ccccc5)[nH]4)cn3)cc2)[nH]1)c1ccccc1 [Example 152j-2, methyl ((1R)-2-((2S)-2-(5-(2-(4-(2-((2S)-1-((2R)-2-((methoxycarbonyl)amino)-2-phenylacetyl)-2-pyrrolidinyl)-1H-imidazol-5-yl)phenyl)-5-pyrimidinyl)-1H-imidazol-2-yl)-1-pyrrolidinyl)-2-oxo-1-phenylethyl)carbamate] | 0.001 to 0.999 nM
COC(=O)N[C@@H](C(=O)N1CCC[C@H]1c1ncc(-c2ccc(-c3ncc(-c4cnc([C@@H]5CCCN5C(=O)Cc5cccnc5)[nH]4)cn3)cc2)[nH]1)c1ccccc1 [Example 152j-3, methyl ((1R)-2-oxo-1-phenyl-2-((2S)-2-(5-(4-(5-(2-((2S)-1-(3-pyridinylacetyl)-2-pyrrolidinyl)-1H-imidazol-5-yl)-2-pyrimidinyl)phenyl)-1H-imidazol-2-yl)-1-pyrrolidinyl)ethyl)carbamate] | 0.001 to 0.999 nM
O=C([C@@H](c1ccccc1)N1CCCCC1)N1CCC[C@H]1c1ncc(-c2ccc(-c3ncc(-c4cnc([C@@H]5CCCN5C(=O)[C@@H](c5ccccc5)N5CCCCC5)[nH]4)cn3)cc2)[nH]1 [Example 152j-5, 5-(2-((2S)-1-((2R)-2-phenyl-2-(1-piperidinyl)acetyl)-2-pyrrolidinyl)-1H-imidazol-5-yl)-2-(4-(2-((2S)-1-((2R)-2-phenyl-2-(1-piperidinyl)acetyl)-2-pyrrolidinyl)-1H-imidazol-4-yl)phenyl)pyrimidine] | 0.001 to 0.999 nM
C[C@@H](c1ncc(-c2ccc(-c3ncc(-c4cnc([C@@H]5CCCN5C(=O)[C@@H](c5ccccc5)N5CCCCC5)[nH]4)cn3)cc2)[nH]1)N(C)C(=O)[C@@H](c1ccccc1)N1CCCCC1 [Example 152j-6, (2R)-N-methyl-2-phenyl-N-((1S)-1-(4-(4-(5-(2-((2S)-1-((2R)-2-phenyl-2-(1-piperidinyl)acetyl)-2-pyrrolidinyl)-1H-imidazol-5-yl)-2-pyrimidinyl)phenyl)-1H-imidazol-2-yl)ethyl)-2-(1-piperidinyl)acetamide] | 0.001 to 0.999 nM
CN(C)[C@@H](C(=O)N1CCC[C@H]1c1ncc(-c2ccc(-c3cnc(-c4cnc([C@@H]5CCCN5C(=O)[C@@H](c5ccccc5)N(C)C)[nH]4)cn3)cc2)[nH]1)c1ccccc1 [Example 152j-7, (1R)-2-((2S)-2-(5-(5-(4-(2-((2S)-1-((2R)-2-(dimethylamino)-2-phenylacetyl)-2-pyrrolidinyl)-1H-imidazol-5-yl)phenyl)-2-pyrazinyl)-1H-imidazol-2-yl)-1-pyrrolidinyl)-N,N-dimethyl-2-oxo-1-phenylethanamine] | 1 to 99 nM
COC(=O)N[C@@H](C(=O)N1CCC[C@H]1c1ncc(-c2ccc(-c3cnc(-c4cnc([C@@H]5CCCN5C(=O)[C@H](NC(=O)OC)c5ccccc5)[nH]4)cn3)cc2)[nH]1)c1ccccc1 [Example 152j-8, methyl ((1R)-2-((2S)-2-(5-(5-(4-(2-((2S)-1-((2R)-2-((methoxycarbonyl)amino)-2-phenylacetyl)-2-pyrrolidinyl)-1H-imidazol-5-yl)phenyl)-2-pyrazinyl)-1H-imidazol-2-yl)-1-pyrrolidinyl)-2-oxo-1-phenylethyl)carbamate] | 0.001 to 0.999 nM
